Source: ChEMBL document CHEMBL1201862, “PubChem BioAssay data set” (2004)
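Cells were grown in 96-well plates and exposed to each compound for 48 hours at five concentrations; endpoints were interpolated linearly between bracketing concentrations, or set to the highest concentration if not reached. At the GI50, growth is halved.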 Activity calls are given as the source filed them. Cut-off read from the data, not from the text of the source: active = GI50 up to about 1.1 µM and inactive = higher.

Tests used:
Assay in all cases: DTP human tumour cell line panel, 48 h
K562 = test system: K562
LOX IMVI = test system: LOX IMVI
BT-549 = test system: BT-549
HL-60 = test system: HL-60
M14 = test system: M14
OVCAR-4 = test system: OVCAR-4
CAKI-1 = test system: CAKI-1
UACC-62 = test system: UACC-62
786-0 = test system: 786-0
NCI-H460 = test system: NCI-H460
SK-MEL-28 = test system: SK-MEL-28
U-251 = test system: U-251
RPMI-8226 = test system: RPMI-8226
CCRF-CEM = test system: CCRF-CEM
Hs-578T = test system: Hs-578T
HOP-62 = test system: HOP-62
OVCAR-8 = test system: OVCAR-8
SW-620 = test system: SW-620
T47D = test system: T47D
KM12 = test system: KM12
HOP-92 = test system: HOP-92
SK-MEL-5 = test system: SK-MEL-5
NCI-H226 = test system: NCI-H226
NCI/ADR-RES = test system: NCI/ADR-RES
ACHN = test system: ACHN
OVCAR-5 = test system: OVCAR-5
MDA-MB-435 = test system: MDA-MB-435
RXF 393 = test system: RXF 393
SR = test system: SR
MCF7 = test system: MCF7
SK-MEL-2 = test system: SK-MEL-2
SNB-19 = test system: SNB-19
HCT-116 = test system: HCT-116
MDA-MB-231 = test system: MDA-MB-231
Malme-3M = test system: Malme-3M
NCI-H522 = test system: NCI-H522
PC-3 = test system: PC-3
MDA-N = test system: MDA-N
TK-10 = test system: TK-10
HCT-15 = test system: HCT-15
MOLT-4 = test system: MOLT-4
NCI-H23 = test system: NCI-H23
SF-539 = test system: SF-539
EKVX = test system: EKVX
A549 = test system: A549
SNB-75 = test system: SNB-75
UO-31 = test system: UO-31
SN12C = test system: SN12C
OVCAR-3 = test system: OVCAR-3
HCC 2998 = test system: HCC 2998
SF-295 = test system: SF-295
HT-29 = test system: HT-29
IGROV-1 = test system: IGROV-1
SF-268 = test system: SF-268
UACC-257 = test system: UACC-257
A498 = test system: A498
SK-OV-3 = test system: SK-OV-3
COLO 205 = test system: COLO 205
DU-145 = test system: DU-145

Cc1cc(Cl)ccc1NC(=O)/C(Cc1nc2ccc(C(=O)c3ccccc3)cc2nc1O)=N/NC(=O)c1ccncc1
GI50 (K562): 63.7 µM (inactive) | GI50 (LOX IMVI): > 100 µM (inactive) | GI50 (BT-549): > 100 µM (inactive) | GI50 (HL-60): 95.9 µM (inactive) | GI50 (M14): > 100 µM (inactive) | GI50 (OVCAR-4): > 100 µM (inactive) | GI50 (CAKI-1): > 100 µM (inactive) | GI50 (UACC-62): 97.3 µM (inactive) | GI50 (786-0): > 100 µM (inactive) | GI50 (NCI-H460): > 100 µM (inactive) | GI50 (SK-MEL-28): > 100 µM (inactive) | GI50 (U-251): > 100 µM (inactive) | GI50 (RPMI-8226): > 100 µM (inactive) | GI50 (CCRF-CEM): > 100 µM (inactive) | GI50 (Hs-578T): > 100 µM (inactive) | GI50 (HOP-62): > 100 µM (inactive) | GI50 (OVCAR-8): > 100 µM (inactive) | GI50 (SW-620): > 100 µM (inactive) | GI50 (T47D): > 100 µM (inactive) | GI50 (KM12): 39.1 µM (inactive) | GI50 (HOP-92): > 100 µM (inactive) | GI50 (SK-MEL-5): 92 µM (inactive) | GI50 (NCI-H226): 1.72 µM (inactive) | GI50 (NCI/ADR-RES): > 100 µM (inactive) | GI50 (ACHN): > 100 µM (inactive) | GI50 (OVCAR-5): > 100 µM (inactive) | GI50 (MDA-MB-435): 42.4 µM (inactive) | GI50 (RXF 393): > 100 µM (inactive) | GI50 (SR): 21.7 µM (inactive) | GI50 (MCF7): > 100 µM (inactive) | GI50 (SK-MEL-2): > 100 µM (inactive) | GI50 (SNB-19): > 100 µM (inactive) | GI50 (HCT-116): 50.6 µM (inactive) | GI50 (MDA-MB-231): > 100 µM (inactive) | GI50 (Malme-3M): > 100 µM (inactive) | GI50 (NCI-H522): > 100 µM (inactive) | GI50 (PC-3): > 100 µM (inactive) | GI50 (MDA-N): 97.3 µM (inactive) | GI50 (TK-10): > 100 µM (inactive) | GI50 (HCT-15): 92 µM | GI50 (MOLT-4): 64.3 µM (inactive) | GI50 (NCI-H23): > 100 µM (inactive) | GI50 (SF-539): > 100 µM (inactive) | GI50 (EKVX): > 100 µM (inactive) | GI50 (A549): > 100 µM (inactive) | GI50 (SNB-75): > 100 µM (inactive) | GI50 (UO-31): 53.8 µM (inactive) | GI50 (SN12C): > 100 µM (inactive) | GI50 (OVCAR-3): > 100 µM (inactive) | GI50 (HCC 2998): > 100 µM (inactive) | GI50 (SF-295): > 100 µM (inactive) | GI50 (HT-29): > 100 µM (inactive) | GI50 (IGROV-1): > 100 µM (inactive) | GI50 (SF-268): > 100 µM (inactive) | GI50 (UACC-257): > 100 µM (inactive) | GI50 (A498): > 100 µM (inactive) | GI50 (SK-OV-3): > 100 µM (inactive)

CN(C)C(=O)O/N=C1/C(=C2/C(=O)Nc3ccccc32)Nc2ccccc21
GI50 (K562): 27.7 µM (inactive) | GI50 (LOX IMVI): 86.3 µM (inactive) | GI50 (BT-549): 13.4 µM (inactive) | GI50 (HL-60): > 100 µM (inactive) | GI50 (M14): 50.1 µM (inactive) | GI50 (OVCAR-4): 6.81 µM (inactive) | GI50 (CAKI-1): 0.883 µM (active) | GI50 (UACC-62): 16.1 µM (inactive) | GI50 (786-0): 6.98 µM (inactive) | GI50 (NCI-H460): 7.96 µM (inactive) | GI50 (SK-MEL-28): 36.5 µM (inactive) | GI50 (COLO 205): > 100 µM (inactive) | GI50 (U-251): 11.7 µM (inactive) | GI50 (RPMI-8226): > 100 µM (inactive) | GI50 (CCRF-CEM): > 100 µM (inactive) | GI50 (Hs-578T): 9.35 µM (inactive) | GI50 (HOP-62): 14.1 µM (inactive) | GI50 (OVCAR-8): 9.75 µM (inactive) | GI50 (SW-620): 53.7 µM (inactive) | GI50 (T47D): 2.76 µM (inactive) | GI50 (KM12): 0.304 µM (active) | GI50 (DU-145): 8.83 µM (inactive) | GI50 (HOP-92): 6.21 µM (inactive) | GI50 (SK-MEL-5): 24.2 µM (inactive) | GI50 (NCI/ADR-RES): 21.9 µM (inactive) | GI50 (ACHN): 19.2 µM (inactive) | GI50 (OVCAR-5): 31 µM (inactive) | GI50 (MDA-MB-435): 50.7 µM (inactive) | GI50 (RXF 393): 1.57 µM (inactive) | GI50 (SR): 4.89 µM (inactive) | GI50 (MCF7): 17 µM (inactive) | GI50 (SK-MEL-2): 8.53 µM (inactive) | GI50 (SNB-19): 10.9 µM (inactive) | GI50 (HCT-116): 19.1 µM (inactive) | GI50 (MDA-MB-231): 11.6 µM (inactive) | GI50 (Malme-3M): 4.25 µM (inactive) | GI50 (NCI-H522): 8.75 µM (inactive) | GI50 (MDA-N): 46.2 µM (inactive) | GI50 (TK-10): 17.4 µM (inactive) | GI50 (HCT-15): 19.2 µM | GI50 (MOLT-4): 10.4 µM (inactive) | GI50 (NCI-H23): 28.7 µM (inactive) | GI50 (SF-539): 9.77 µM (inactive) | GI50 (EKVX): 4.83 µM (inactive) | GI50 (A549): 20.5 µM (inactive) | GI50 (SNB-75): 2.45 µM (inactive) | GI50 (UO-31): 21.6 µM (inactive) | GI50 (SN12C): 22.8 µM (inactive) | GI50 (OVCAR-3): 8.99 µM (inactive) | GI50 (HCC 2998): 38.5 µM (inactive) | GI50 (SF-295): 19.1 µM (inactive) | GI50 (HT-29): 38.8 µM (inactive) | GI50 (IGROV-1): 0.711 µM (active) | GI50 (SF-268): 6.68 µM (inactive) | GI50 (UACC-257): 27.2 µM (inactive) | GI50 (A498): 1.5 µM (inactive) | GI50 (SK-OV-3): 11.8 µM (inactive)
